Test system: kidney tissues
Assay: MALDI MSI ion intensity of renal endogenous metabolites, rotenone-treated vs untreated kidney
Assay type: in vivo, rat
Set-up: key to Ion Intensity in Rotenone-treated Kidney Tissues: N-Acetylhistidine / Ion Intensity in Rotenone-treated Kidney Tissues: O-Phosphotyrosine / Ion Intensity in Rotenone-treated Kidney Tissues: Adenosine diphosphate / Ion Intensity in Rotenone-treated Kidney Tissues: LysoPC(P-16:0) / Ion Intensity in Rotenone-treated Kidney Tissues: LysoPC(16:1) / Ion Intensity in Rotenone-treated Kidney Tissues: LysoPC(16:0) / Ion Intensity in Rotenone-treated Kidney Tissues: LysoPC(17:0) / Ion Intensity in Rotenone-treated Kidney Tissues: LysoPC(18:2) / Ion Intensity in Rotenone-treated Kidney Tissues: L-carnitine / Ion Intensity in Rotenone-treated Kidney Tissues: LysoPC(18:1) / Ion Intensity in Rotenone-treated Kidney Tissues: LysoPC(20:4) / Ion Intensity in Rotenone-treated Kidney Tissues: Phosphorylcholine / Ion Intensity in Rotenone-treated Kidney Tissues: Adenosine monophosphate / Ion Intensity in Rotenone-treated Kidney Tissues: Creatinine / Ion Intensity in Rotenone-treated Kidney Tissues: Histidine / Ion Intensity in Rotenone-treated Kidney Tissues: Phenylalanine / Ion Intensity in Rotenone-treated Kidney Tissues: 3-methylhistidine / Ion Intensity in Rotenone-treated Kidney Tissues: Arginine: ↑ indicates higher ion intensity level than that of the control group; ↓ indicates lower ion intensity level than that of the control group; *p < 0.05; **p < 0.01; ***p < 0.001
Settings: vs control; for Ion intensity in rotenone-treated kidney tissues: Glycero-3-phosphocholine / Ion intensity in rotenone-treated kidney tissues: Inosine / Ion intensity in rotenone-treated kidney tissues: LysoPC(18:0): [M+K]+
Experimental: Rats were sacrificed 24 h after drug administration, and the kidney and liver organs were immediately removed, flash-frozen with liquid nitrogen, and stored at −80°C in a freezer for long-term storage. The administration and harvesting of organs were conducted by the Pharmalytics Corporation, accredited by the Food and Drug Administration (FDA, Philippines) for bioavailability and bioequivalence research. The animal study was reviewed and approved by the Institutional Animal Care and Use Committee (IACUC) Esteleydes Animal Laboratory and Research Facility and by the Bureau of Animal Industry—Animal Health and Welfare Division in the Philippines.
To identify possible metabolic alterations, the m/z values of endogenous compounds found in kidney were extracted from the human metabolome database (http://www.hmdb.ca). The spatial mapping of endogenous compounds was visualized by MALDI HDMS imaging. The detection of metabolite biomarkers was supported by their spatial distribution, normalized ion intensity, m/z accuracy, and similar drift time bins in thin tissues sectioned from the seven identified layers of drug-treated and control rat kidney.
MALDI HDMS raw data was imported into High-Definition Imaging (HDI) software v1.5 (Waters Corporation, Manchester, United Kingdom). Data processing was performed by detecting 10,000 intense peaks between a mass range of m/z 50–750, a drift time maximum of 200 bins, and a lock mass-based correction at m/z 464.6064. Following data processing, peak picking was carried out and data was normalized based on the total ion current (TIC). The spatial distribution of rotenone and kidney endogenous molecules from the m/z peak list was visualized using the HDI software. […] The tentative identification and assignment of kidney metabolites were based on the metabolites in the human metabolome database (http://www.hmdb.ca). The m/z values and structure of these renal endogenous molecules were verified using PubChem (https://pubchem.ncbi.nlm.nih.gov), ChemDraw Professionals, and by the related literature ([Jung et al., 2016]; [Nizioł et al., 2020]; [Zhu Y. et al., 2022]).
A multivariate analysis was performed by importing the merged CSV file of processed MALDI image data into EZinfo v3.0 (Waters Corporation, Manchester, United Kingdom). Principal component analysis (PCA) was used to find patterns or trend in the MALDI dataset of the control and drug-treated groups. A peak list of biomolecules was manually created for PCA analysis from the laser-ablated kidney tissue sections. Pareto variance was used to scale the x-variable and to eliminate any bias in this unsupervised algorithm. Similar and far away observations between the dataset were illustrated based on the t[1] and t[2] indices. Meanwhile, the statistical differences between the mass ion intensity of endogenous compounds in two treatment groups were analyzed using the Student’s t-test of GraphPad Prism version 9.4.0 (GraphPad Software Inc., San Diego, CA, United States). The significance threshold was set at p < 0.05 (*), p < 0.01 (**), and p < 0.001 (***).

[1] = rat, single oral 2 mg/kg, 24 h, [M+H]+

C=C(C)[C@H]1Cc2c(ccc3c2O[C@@H]2COc4cc(OC)c(OC)cc4[C@@H]2C3=O)O1 [rotenone, Rotenone]
Ion Intensity in Rotenone-treated Kidney Tissues: 3-methylhistidine (Table S1, [M+H]+): ↓
Ion Intensity in Rotenone-treated Kidney Tissues: Adenosine diphosphate (Table S1, [M+H]+): ↑
Ion Intensity in Rotenone-treated Kidney Tissues: Adenosine monophosphate (Table S1, [M+H]+): ↓
Ion Intensity in Rotenone-treated Kidney Tissues: Arginine (Table S1, [M+H]+): ↓
Ion Intensity in Rotenone-treated Kidney Tissues: Creatinine (Table S1, [M+H]+): ↓
Ion Intensity in Rotenone-treated Kidney Tissues: Histidine (Table S1, [M+H]+): ↑
Ion Intensity in Rotenone-treated Kidney Tissues: L-carnitine (Table S1, [M+H]+): ↑
Ion Intensity in Rotenone-treated Kidney Tissues: LysoPC(16:0) (Table S1, [M+H]+): ↓
Ion Intensity in Rotenone-treated Kidney Tissues: LysoPC(16:1) (Table S1, [M+H]+): ↑
Ion Intensity in Rotenone-treated Kidney Tissues: LysoPC(17:0) (Table S1, [M+H]+): ↓
Ion Intensity in Rotenone-treated Kidney Tissues: LysoPC(18:1) (Table S1, [M+H]+): ↑
Ion Intensity in Rotenone-treated Kidney Tissues: LysoPC(18:2) (Table S1, [M+H]+): ↑
Ion Intensity in Rotenone-treated Kidney Tissues: LysoPC(20:4) (Table S1, [M+H]+): ↑
Ion Intensity in Rotenone-treated Kidney Tissues: LysoPC(P-16:0) (Table S1, [M+H]+): ↓
Ion Intensity in Rotenone-treated Kidney Tissues: N-Acetylhistidine (Table S1, [M+H]+): ↓
Ion Intensity in Rotenone-treated Kidney Tissues: O-Phosphotyrosine (Table S1, [M+H]+): ↓
Ion Intensity in Rotenone-treated Kidney Tissues: Phenylalanine (Table S1, [M+H]+): ↓
Ion intensity in rotenone-treated kidney tissues: Choline (Table S1, [M+H]+): ↓***
Ion intensity in rotenone-treated kidney tissues: Sphingomyelin (D18:1/16:0) (Table S1, [M+H]+): ↑*
Ion intensity in rotenone-treated kidney tissues: Glycero-3-phosphocholine (Table S1): ↓*
Ion intensity in rotenone-treated kidney tissues: Inosine (Table S1): ↓**
Ion intensity in rotenone-treated kidney tissues: LysoPC(18:0) (Table S1): ↓**
Ion Intensity in Rotenone-treated Kidney Tissues: Phosphorylcholine (Table S1, [M]+): ↑
Ion intensity in rotenone-treated kidney tissues: Choline [1]: ↓***
Ion intensity in rotenone-treated kidney tissues: Sphingomyelin (D18:1/16:0) [1]: ↑*
Ion intensity in rotenone-treated kidney tissues: Glycero-3-phosphocholine (rat, single oral 2 mg/kg, 24 h): ↓*
Ion intensity in rotenone-treated kidney tissues: Inosine (rat, single oral 2 mg/kg, 24 h): ↓**
Ion intensity in rotenone-treated kidney tissues: LysoPC(18:0) (rat, single oral 2 mg/kg, 24 h): ↓**
ion intensity of choline in kidney tissues treated with rotenone (p < 0.001): significant decrease
inosine level in treated kidney (p < 0.01): significant reduction
ion intensity levels of LysoPC(18:0) in rotenone-treated kidney tissues (p < 0.01): decreased significantly
GPC level in drug-treated kidney tissues (p < 0.05): decreased significantly
sphingomyelin (D18:1/16:0) level in treated kidney (p < 0.05): significant increase

— article PMC11246995 (Frontiers in Molecular Biosciences, 2024)
